From ChEMBL document CHEMBL5108064, “Comparative Analysis of Small-Molecule LIMK1/2 Inhibitors: Chemical Synthesis, Biochemistry, and Cellular Activity” (J Med Chem, 2022)

Experiment: Volume of distribution at steady state in Sprague-Dawley rat at 0.5 mg/kg, iv by LCMS/MS analysis
Format: ADME, organism-based
Conditions: in vivo, read-out: Vdss

Compound: Cc1c[nH]c2ncnc(N3CCC(CN)(C(=O)Nc4cccc(OC(=O)N(C)C)c4)CC3)c12 [LX-7101]
- Vd: 0.5 L/kg
